PubChem BioAssay (NCI)
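Dose response: 5 concentrations. Exposure: 48 h. Format: 96-well plates. Endpoint: linear interpolation; highest concentration if not reached. At the GI50, growth is halved. Definition used: TGI = concentration required for complete inhibition of growth.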

Assays:
Assay in all cases: NCI-60 cell line screen, 48 h
UACC-62 melanoma = tested on: UACC-62 melanoma
PC-3 prostate = tested on: PC-3 prostate
CCRF-CEM leukemia = tested on: CCRF-CEM leukemia
SNB-75 CNS = tested on: SNB-75 CNS
MDA-MB-435 = tested on: MDA-MB-435
CAKI-1 renal = tested on: CAKI-1 renal
SK-MEL-2 melanoma = tested on: SK-MEL-2 melanoma
A498 renal = tested on: A498 renal

Row | SMILES | GI50 (UACC-62 melanoma) | TGI (UACC-62 melanoma) | GI50 (PC-3 prostate) | TGI (PC-3 prostate) | GI50 (CCRF-CEM leukemia) | TGI (CCRF-CEM leukemia) | GI50 (SNB-75 CNS) | TGI (SNB-75 CNS) | GI50 (MDA-MB-435) | TGI (MDA-MB-435) | GI50 (CAKI-1 renal) | TGI (CAKI-1 renal) | GI50 (SK-MEL-2 melanoma) | TGI (SK-MEL-2 melanoma) | GI50 (A498 renal) | TGI (A498 renal)
1 | COC(=O)[C@@H](C)C[C@H](Cc1ccccc1)NC(=O)c1cccc([C@@H](C[C@H](C(C)C)N(C)C(=O)[C@@H](NC(=O)[C@H]2CCCCN2C)C(C)C)OC(C)=O)n1 | < 0.00167 µM | > 16.7 µM | < 0.00167 µM | > 16.7 µM | 0.00203 µM | > 16.7 µM | < 0.00167 µM | > 16.7 µM | < 0.00167 µM | 0.0881 µM | 0.00173 µM | > 16.7 µM |  |  |  | 
2 | COc1ccc(C2CC(c3ccc(OC)c(OC)c3)=NN2C(=O)c2cc(OC)c(OC)c(OC)c2)cc1 (configuration not stated) | 1.39 µM | > 100 µM | 3.57 µM | > 100 µM | 4.29 µM | > 100 µM | 2.08 µM | > 100 µM | 0.409 µM | 2.02 µM | 0.473 µM | > 24.9 µM | 3.87 µM | > 100 µM |  | 
3 | CNCc1ccc(C)c(NC(=O)c2ccc(Nc3nc(-c4ccccc4)c4ccccc4n3)cc2)c1 |  |  | 1.92 µM | 4.15 µM | 2.07 µM | 5.43 µM | 0.842 µM | 2.32 µM | 1.6 µM | 3.22 µM | 1.87 µM | 3.57 µM | 1.9 µM | 3.66 µM | 1.53 µM | 3.04 µM
4 | COc1cc2c(c(OC)c1OC)-c1c(c3ccc([N+](=O)[O-])cc3c(=O)n1CCCN=[N+]=[N-])C2=O | 32.5 µM | > 100 µM | > 100 µM | > 100 µM | > 100 µM | > 100 µM |  |  | > 100 µM | > 100 µM | 50.3 µM | > 100 µM | 2.49 µM | 22.9 µM | 11.9 µM | 29.6 µM
5 | N#CC1=C(N)Oc2c(ccc3ccccc23)C1c1ccccc1Cl (configuration not stated) | 0.677 µM | 17.7 µM | 0.317 µM | 16.2 µM | 0.269 µM | 17.2 µM | 0.163 µM | 2.95 µM |  |  | 0.167 µM | 20.9 µM | 0.558 µM | 18 µM | 0.0845 µM | 0.496 µM
6 | CN(C)CCCn1c2c(c3ccc([N+](=O)[O-])cc3c1=O)C(=O)c1ccccc1-2 | 7.13 µM | 24.6 µM | 6.06 µM | > 100 µM | 3.85 µM | 59 µM | 5.24 µM | 19.3 µM | > 100 µM | > 100 µM | 3.07 µM | 19.7 µM | > 100 µM | > 100 µM |  | 
7 | COc1ccc(/C(C)=C(\c2ccc(Cl)cc2)c2ccc(OCCN3CCCCC3)cc2)cc1F | 3.68 µM | 8.9 µM | 2.67 µM | 7.47 µM | 3.98 µM | 16.1 µM | 4.29 µM | 13.1 µM | 2.71 µM | 5.37 µM | 3.14 µM | 6.48 µM | 3.53 µM | 7.65 µM |  | 
8 | O=C1C2=C(Nc3cc([N+](=O)[O-])ccc3N2)OC1c1c[nH]c2ccc(COc3ccccc3)cc12 (configuration not stated) |  | > 100 µM |  | > 100 µM |  |  |  | 65.9 µM |  | > 100 µM |  | > 100 µM |  | > 100 µM |  | > 100 µM
9 | CCOC(=O)c1ccccc1NC(c1ccccc1)c1ccc2cccnc2c1O (configuration not stated) |  |  | 5.13 µM | > 100 µM | 2.32 µM | > 100 µM | 2.6 µM | 89.8 µM | 5.41 µM | 61.6 µM | 3.05 µM | > 100 µM | 3.74 µM | 45.1 µM | 1.15 µM | 8.05 µM
10 | C=CC(=O)N1CC[C@@H](Oc2nc(Nc3ccc(N4CCC(N5CCN(C)CC5)CC4)cc3)c(C(N)=O)nc2CC)C1 | > 100 µM | > 100 µM | > 100 µM | > 100 µM | > 100 µM | > 100 µM | > 100 µM | > 100 µM | > 100 µM | > 100 µM |  |  | > 100 µM | > 100 µM | > 100 µM | > 100 µM
11 | COc1ccc(N2CCN(CC(=O)N3CCN(c4nnc(-c5ccc(Cl)cc5)c(-c5ccc(Cl)cc5)n4)CC3)CC2)cc1 |  |  | 6.56 µM | > 100 µM | 12.6 µM | > 100 µM | 13.2 µM | 55.4 µM | 9.06 µM | > 100 µM | 16.6 µM | 82.7 µM | 25.8 µM | > 100 µM | 13.4 µM | > 100 µM
12 | N#Cc1c(-c2ccc(Cl)cc2)n([O-])c2ccccc2[n+]1=O | 17.2 µM | 33.6 µM | 3.26 µM | 13 µM | 2.63 µM | 8.2 µM | 21.4 µM | 39.5 µM | 13.7 µM | 27 µM |  |  | 37.3 µM | > 100 µM |  | 
